Source: patent US6723841B2, “Corticotropin-releasing factor2 receptors” (priority 1994, dated 2004)
Ends that are not written are not given here.

Key:
Format in all cases: cell-based
human CRF2α receptor = assay: cAMP assay (adenylate cyclase stimulation) in cells transfected with CRF2α receptor; details: cAMP production, read-out: effective concentration of one-half maximal adenylate cyclase stimulation (EC50), human CRF2α receptor
Experimental: (§1) For agonist testing, compounds are added to wells with buffer only in order to identify compounds with intrinsic activity. […] Compounds are then assessed for their ability to inhibit the CRF-stimulated cAMP production in the transfected cells. Briefly, cells are plated and grown in DMEM containing 10% fetal bovine serum for 2-4 days in 24-well plates at 37° C. On the day of assay, the medium is removed by vacuum aspiration and 100 μl of DMEM, 10 mM MgCl2, 1 mM isobutylmethylxanthine (a phosphodiesterase inhibitor to inhibit the breakdown of cAMP produced) and 0.1% BSA (pH 7.2) are added to each well. CRF, related peptides and organic test molecules are added to individual wells. The plates are incubated at 37° C. for a period of 1 hour. Following incubation, the wells are aspirated, rinsed once with PBS and aspirated again. 300 μl of 95% Ethanol and 20 mM HCl (EtOH/HCl) are then added to each well and the plates incubated at −20° C. overnight to extract the produced cAMP. The EtOH/HCl is removed, placed in 1.5 ml polypropylene eppendorf tubes and the wells washed with an additional 200 μl of EtOH/HCl and pooled with the initial sample. All samples are dried in a Speed-Vac (Savant Instruments, Farmingdale N.Y.) and either stored at −20° C. until use or reconstituted with 500 μl of sodium acetate buffer pH 7.5 and assayed immediately for cAMP concentration using a radioimmunoassay kit from Biomedical Technologies Inc. (Stoughton Mass.) according to manufacturers instructions.
The above results have been formulated below in Table I, wherein the effective concentration of one-half maximal adenylate cyclase stimulation (EC50) are presented.

rat CRF2β receptor = target: T1, rat CRF2β receptor (Rattus norvegicus, UniProt P47866); assay: cAMP assay (adenylate cyclase stimulation) in cells transfected with CRF2β receptor; details: cAMP production, read-out: effective concentration of one-half maximal adenylate cyclase stimulation (EC50), rat CRF2β receptor
T1 construct: A full-length CRF2 receptor clone in pBluescriptSK- is isolated from the phage clone described above; expressed in transfected cells; host or cells: COS-7
T1 sequence (P47866 1-431 isoform P47866-2): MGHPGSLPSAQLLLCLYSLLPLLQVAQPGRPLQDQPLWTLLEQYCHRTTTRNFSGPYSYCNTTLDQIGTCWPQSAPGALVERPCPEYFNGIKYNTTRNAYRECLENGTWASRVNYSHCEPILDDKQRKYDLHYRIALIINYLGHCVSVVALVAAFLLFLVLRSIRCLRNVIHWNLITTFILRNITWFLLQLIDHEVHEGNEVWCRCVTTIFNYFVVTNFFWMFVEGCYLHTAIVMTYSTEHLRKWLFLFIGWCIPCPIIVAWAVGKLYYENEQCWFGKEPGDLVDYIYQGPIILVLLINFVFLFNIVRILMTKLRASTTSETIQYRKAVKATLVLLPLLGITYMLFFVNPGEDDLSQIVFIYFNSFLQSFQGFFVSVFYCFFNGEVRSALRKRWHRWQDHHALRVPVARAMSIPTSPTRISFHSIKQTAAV
Experimental: (§2) For agonist testing, compounds are added to wells with buffer only in order to identify compounds with intrinsic activity. […] Briefly, cells are plated and grown in DMEM containing 10% fetal bovine serum for 2-4 days in 24-well plates at 37° C. On the day of assay, the medium is removed by vacuum aspiration and 100 μl of DMEM, 10 mM MgCl2, 1 mM isobutylmethylxanthine (a phosphodiesterase inhibitor to inhibit the breakdown of cAMP produced) and 0.1% BSA (pH 7.2) are added to each well. […] The plates are incubated at 37° C. for a period of 1 hour. Following incubation, the wells are aspirated, rinsed once with PBS and aspirated again. 300 μl of 95% Ethanol and 20 mM HCl (EtOH/HCl) are then added to each well and the plates incubated at −20° C. overnight to extract the produced cAMP. The EtOH/HCl is removed, placed in 1.5 ml polypropylene eppendorf tubes and the wells washed with an additional 200 μl of EtOH/HCl and pooled with the initial sample. All samples are dried in a Speed-Vac (Savant Instruments, Farmingdale N.Y.) and either stored at −20° C. until use or reconstituted with 500 μl of sodium acetate buffer pH 7.5 and assayed immediately for cAMP concentration using a radioimmunoassay kit from Biomedical Technologies Inc. (Stoughton Mass.) according to manufacturers instructions.

rat CRF2α receptor = target: T2, rat CRF2α receptor (Rattus norvegicus, UniProt P47866); assay: cAMP accumulation in cells transfected with rat CRF2α receptor (FIG. 4)
T2 construct: A full-length CRF2 receptor clone in pBluescriptSK- is isolated from the phage clone described above; expressed in transfected cells; host or cells: COS-7
T2 sequence (P47866 whole entry): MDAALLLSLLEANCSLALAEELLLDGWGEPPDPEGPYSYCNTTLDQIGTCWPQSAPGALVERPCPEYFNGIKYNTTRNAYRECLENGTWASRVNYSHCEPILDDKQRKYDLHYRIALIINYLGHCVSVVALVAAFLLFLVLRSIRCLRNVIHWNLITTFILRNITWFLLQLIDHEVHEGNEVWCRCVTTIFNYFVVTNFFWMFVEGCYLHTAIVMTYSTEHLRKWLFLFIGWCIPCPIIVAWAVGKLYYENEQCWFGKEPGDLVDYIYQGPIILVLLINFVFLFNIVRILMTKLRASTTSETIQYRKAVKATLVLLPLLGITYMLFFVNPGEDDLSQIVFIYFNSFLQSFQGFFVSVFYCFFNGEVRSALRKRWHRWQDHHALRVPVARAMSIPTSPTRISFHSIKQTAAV
Experimental: as §1, with “All samples are dried in a Speed-Vac (Savant Instruments, Farmingdale N.Y.) and either stored at −20° C. until use or reconstituted with 500 μl of sodium acetate buffer pH 7.5 and assayed immediately for cAMP concentration using a radioimmunoassay kit from Biomedical Technologies Inc. (Stoughton Mass.) according to manufacturers instructions.” left out
In FIG. 4, the rat CRF2α receptor has been transfected into cells and cAMP accumulation is measured in response to the same drugs as shown in FIG. 3. […]

human CRF1 receptor = target: T3, human CRF1 receptor (Homo sapiens, UniProt P34998); assay: cAMP assay (adenylate cyclase stimulation) in cells transfected with CRF1 receptor; details: for EC50: transfected cells, cAMP production, read-out: effective concentration of one-half maximal adenylate cyclase stimulation (EC50), human CRF1 receptor; for cAMP accumulation in cells transfected with the CRF1 receptor: FIG. 3
T3 construct: expressed in transfected cells
T3 sequence (P34998 24-415): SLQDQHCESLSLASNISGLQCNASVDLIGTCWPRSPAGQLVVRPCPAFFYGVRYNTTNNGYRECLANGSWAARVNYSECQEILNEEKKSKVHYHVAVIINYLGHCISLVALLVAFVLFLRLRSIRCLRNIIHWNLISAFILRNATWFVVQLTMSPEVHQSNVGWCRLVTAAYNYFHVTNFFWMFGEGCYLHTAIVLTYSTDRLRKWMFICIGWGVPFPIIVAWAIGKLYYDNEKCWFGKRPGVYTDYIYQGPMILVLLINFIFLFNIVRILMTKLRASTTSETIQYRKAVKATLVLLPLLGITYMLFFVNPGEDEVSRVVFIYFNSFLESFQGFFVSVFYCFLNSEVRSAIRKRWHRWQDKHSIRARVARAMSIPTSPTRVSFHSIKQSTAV
Experimental: as §2

| Compound | EC50 (human CRF2α receptor) | EC50 (human CRF1 receptor) | EC50 (rat CRF2β receptor) | relative potency at stimulating cAMP, rat CRF2α receptor (rat CRF2α receptor) | cAMP accumulation in cells transfected with the CRF1 receptor (human CRF1 receptor) |
| --- | --- | --- | --- | --- | --- |
| N=C(N)NCCC[C@H](NC(=O)[C@@H]1CCCN1C(=O)[C@@H]1CSSC[C@H](N)C(=O)N[C@@H](Cc2ccc(O)cc2)C(=O)N[C@@H](Cc2ccccc2)C(=O)N[C@@H](CCC(N)=O)C(=O)N[C@@H](CC(N)=O)C(=O)N1)C(=O)NCC(N)=O [AVP] | > 1000 nM | – | – | – | – |
| CC[C@H](C)[C@H](NC(=O)[C@@H](NC(=O)[C@H](CC(=O)O)NC(=O)[C@H](CC(C)C)NC(=O)[C@H](CC(C)C)NC(=O)[C@H](CC(C)C)NC(=O)[C@H](CCCNC(=N)N)NC(=O)[C@H](CC(N)=O)NC(=O)[C@H](CC(N)=O)NC(=O)[C@H](C)NC(=O)[C@H](C)NC(=O)[C@H](CCC(N)=O)NC(=O)[C@H](CCC(N)=O)NC(=O)[C@H](CCCCN)NC(=O)[C@H](CCC(=O)O)NC(=O)[C@H](CCCCN)NC(=O)[C@H](CCC(=O)O)NC(=O)[C@H](CCC(N)=O)NC(=O)[C@H](CCCCN)NC(=O)[C@H](CCC(=O)O)NC(=O)[C@@H](NC(=O)[C@H](CCC(=O)O)NC(=O)[C@@H](NC(=O)[C@H](CCSC)NC(=O)[C@H](CCCCN)NC(=O)[C@H](CCCNC(=N)N)NC(=O)[C@H](CC(C)C)NC(=O)[C@H](CC(C)C)NC(=O)[C@H](CCC(=O)O)NC(=O)[C@H](CC(C)C)NC(=O)[C@H](CO)NC(=O)[C@H](CC(C)C)NC(=O)[C@H](CC(=O)O)NC(=O)[C@@H](NC(=O)[C@H](CO)NC(=O)[C@@H](NC(=O)[C@@H]1CCCN1C(=O)[C@@H]1CCCN1C(=O)CNC(=O)[C@@H]1CCC(=O)N1)[C@@H](C)CC)[C@@H](C)CC)[C@@H](C)CC)[C@@H](C)CC)[C@@H](C)O)C(N)=O [Sauvagine] | 0.5 nM | – | 0.4 nM | more potent than either oCRF or r/hCRF | – |
| CC[C@H](C)[C@H](NC(=O)[C@H](CO)NC(=O)[C@H](CC(N)=O)NC(=O)[C@H](CC(C)C)NC(=O)[C@H](Cc1ccc(O)cc1)NC(=O)[C@H](CCCCN)NC(=O)[C@H](CCCCN)NC(=O)[C@@H](NC(=O)[C@H](C)NC(=O)[C@H](CCSC)NC(=O)[C@H](CCC(N)=O)NC(=O)[C@H](CCCCN)NC(=O)[C@H](CCCNC(=N)N)NC(=O)[C@H](CC(C)C)NC(=O)[C@H](CCCNC(=N)N)NC(=O)[C@@H](NC(=O)[C@H](Cc1ccc(O)cc1)NC(=O)[C@H](CC(N)=O)NC(=O)[C@H](CC(=O)O)NC(=O)[C@@H](NC(=O)[C@H](Cc1ccccc1)NC(=O)[C@@H](NC(=O)[C@H](C)NC(=O)[C@H](CC(=O)O)NC(=O)[C@H](CO)NC(=O)[C@@H](N)Cc1c[nH]cn1)C(C)C)[C@@H](C)O)[C@@H](C)O)C(C)C)C(=O)N[C@@H](CC(C)C)C(=O)N[C@@H](CC(N)=O)C(N)=O [VIP] | > 1000 nM | – | – | – | – |
| NDDPPISIDLTFHLLRNMIEMARIENEREQAGLNRKYLDEV-NH2 (C-terminus assumed) [Urotensin I] | 2 nM | – | – | more potent than either oCRF or r/hCRF | dose-dependent increase in cAMP |
| oCRF | 80 nM | – | – | – | dose-dependent increase in cAMP |

Second part, led by results:

| EC50 (human CRF2α receptor) | EC50 (human CRF1 receptor) | Compound | EC50 (rat CRF2β receptor) | relative potency at stimulating cAMP, rat CRF2α receptor (rat CRF2α receptor) | cAMP accumulation in cells transfected with the CRF1 receptor (human CRF1 receptor) |
| --- | --- | --- | --- | --- | --- |
| > 1000 nM | > 1000 nM | CC[C@H](C)[C@H](NC(=O)[C@H](C)NC(=O)[C@H](CC(=O)O)NC(=O)[C@H](C)NC(=O)[C@@H](N)Cc1ccc(O)cc1)C(=O)N[C@@H](Cc1ccccc1)C(=O)N[C@H](C(=O)N[C@@H](CC(N)=O)C(=O)N[C@@H](CO)C(=O)N[C@@H](Cc1ccc(O)cc1)C(=O)N[C@@H](CCCNC(=N)N)C(=O)N[C@@H](CCCCN)C(=O)N[C@H](C(=O)N[C@@H](CC(C)C)C(=O)NCC(=O)N[C@@H](CCC(N)=O)C(=O)N[C@@H](CC(C)C)C(=O)N[C@@H](CO)C(=O)N[C@@H](C)C(=O)N[C@@H](CCCNC(=N)N)C(=O)N[C@@H](CCCCN)C(=O)N[C@@H](CC(C)C)C(=O)N[C@@H](CC(C)C)C(=O)N[C@@H](CCC(N)=O)C(=O)N[C@@H](CC(=O)O)C(=O)N[C@H](C(=O)N[C@@H](CCSC)C(=O)N[C@@H](CO)C(=O)N[C@@H](CCCNC(=N)N)C(=O)N[C@@H](CCC(N)=O)C(=O)N[C@@H](CCC(N)=O)C(=O)NCC(=O)N[C@@H](CCC(=O)O)C(=O)N[C@@H](CO)C(=O)N[C@@H](CC(N)=O)C(=O)N[C@@H](CCC(N)=O)C(=O)N[C@@H](CCC(=O)O)C(=O)N[C@@H](CCCNC(=N)N)C(=O)NCC(=O)N[C@@H](C)C(=O)N[C@@H](CCCNC(=N)N)C(=O)N[C@@H](C)C(=O)N[C@@H](CCCNC(=N)N)C(=O)N[C@@H](CC(C)C)C(N)=O)[C@@H](C)CC)C(C)C)[C@@H](C)O [hGRF] | – | – | – |
| > 1000 nM | – | DLTFHLLREMLEMAKAEQEAEQAALNRLLLEEA-NH2 (C-terminus assumed) [α-helical oCRF(9-41)] | – | – | – |
| > 1000 nM | > 1000 nM | ISLDLTFHLLREVLEMARAEQLAQQAHS [r/hCRF(6-33)] | – | – | – |
| > 1000 nM | > 1000 nM | d-Phe r/hCRF(12-41): CRF receptor antagonist peptide | – | – | – |
